Results from patent publication US9580416B2, “Inhibitors of Bruton's tyrosine kinase” (PHARMACYCLICS LLC, priority 2014, dated 2017).
pIC50: −log10 of the molar value.

Columns and labels:
Type in all cases: biochemical
Btk = Btk (Homo sapiens, UniProt Q06187); test: Btk kinase activity, TR-FRET assay; conditions: read-out: Btk (IC50)
Method in brief: (§1)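 Enzyme (Btk 0.5 nM; Lck 6 nM) reacted 1 h with inhibitor, ATP at Km and biotin-peptide substrate in pH 7.4 buffer, 10% DMSO. Phosphopeptide detected by Eu-p-Tyr100 antibody plus streptavidin-APC (665/615 nm). IC50 calculated from fitted Ki(app) via ATP/Km correction plus half total enzyme.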

Lck = Lck (Homo sapiens, UniProt P06239); test: Lck kinase activity, TR-FRET assay; conditions: read-out: LCK (IC50)
Method in brief: as §1

EGFR = EGFR (Homo sapiens, UniProt P00533); test: Inhibition of a panel of kinases, in vitro HotSpot kinase assay: EGFR
Procedure: (§2) The degree of inhibition of a panel of kinases is determined using the in vitro HotSpot kinase assay (purified enzymes, ^33P-ATP, an appropriate substrate and 1 uM ATP).

JAK3 = biological target: T1, JAK3 (Homo sapiens, UniProt P52333); test: Inhibition of a panel of kinases, in vitro HotSpot kinase assay: JAK3
T1 sequence (P52333 1-1124): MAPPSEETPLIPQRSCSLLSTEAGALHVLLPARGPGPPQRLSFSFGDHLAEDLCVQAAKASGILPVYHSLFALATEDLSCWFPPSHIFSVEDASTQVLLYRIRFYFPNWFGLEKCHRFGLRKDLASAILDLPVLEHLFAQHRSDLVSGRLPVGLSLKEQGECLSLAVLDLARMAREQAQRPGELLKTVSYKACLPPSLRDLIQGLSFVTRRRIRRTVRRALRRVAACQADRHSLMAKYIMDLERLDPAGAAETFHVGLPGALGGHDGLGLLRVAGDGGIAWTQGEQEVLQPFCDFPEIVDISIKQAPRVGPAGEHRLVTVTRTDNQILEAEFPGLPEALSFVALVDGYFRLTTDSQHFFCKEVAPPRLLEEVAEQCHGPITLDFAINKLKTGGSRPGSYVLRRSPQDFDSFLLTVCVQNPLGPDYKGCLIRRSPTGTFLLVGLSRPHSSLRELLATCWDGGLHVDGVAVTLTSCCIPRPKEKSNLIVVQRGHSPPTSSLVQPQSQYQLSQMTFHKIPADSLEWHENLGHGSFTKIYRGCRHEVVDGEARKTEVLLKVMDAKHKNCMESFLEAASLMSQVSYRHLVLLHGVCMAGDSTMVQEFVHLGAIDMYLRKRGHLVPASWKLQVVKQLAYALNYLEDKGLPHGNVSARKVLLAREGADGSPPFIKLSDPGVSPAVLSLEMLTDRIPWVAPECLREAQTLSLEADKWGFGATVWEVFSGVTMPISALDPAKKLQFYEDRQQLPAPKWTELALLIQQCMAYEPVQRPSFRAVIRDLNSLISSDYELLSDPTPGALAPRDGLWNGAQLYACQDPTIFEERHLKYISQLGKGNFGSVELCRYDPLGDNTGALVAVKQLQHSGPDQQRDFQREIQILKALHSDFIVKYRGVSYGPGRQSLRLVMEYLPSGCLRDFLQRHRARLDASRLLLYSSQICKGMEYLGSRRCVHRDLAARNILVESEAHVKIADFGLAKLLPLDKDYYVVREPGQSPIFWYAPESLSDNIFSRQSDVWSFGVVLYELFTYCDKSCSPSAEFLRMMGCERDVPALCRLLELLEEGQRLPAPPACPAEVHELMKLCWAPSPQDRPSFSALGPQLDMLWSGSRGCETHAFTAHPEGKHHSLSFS
Procedure: as §2

Sequence of Btk (Q06187 whole entry): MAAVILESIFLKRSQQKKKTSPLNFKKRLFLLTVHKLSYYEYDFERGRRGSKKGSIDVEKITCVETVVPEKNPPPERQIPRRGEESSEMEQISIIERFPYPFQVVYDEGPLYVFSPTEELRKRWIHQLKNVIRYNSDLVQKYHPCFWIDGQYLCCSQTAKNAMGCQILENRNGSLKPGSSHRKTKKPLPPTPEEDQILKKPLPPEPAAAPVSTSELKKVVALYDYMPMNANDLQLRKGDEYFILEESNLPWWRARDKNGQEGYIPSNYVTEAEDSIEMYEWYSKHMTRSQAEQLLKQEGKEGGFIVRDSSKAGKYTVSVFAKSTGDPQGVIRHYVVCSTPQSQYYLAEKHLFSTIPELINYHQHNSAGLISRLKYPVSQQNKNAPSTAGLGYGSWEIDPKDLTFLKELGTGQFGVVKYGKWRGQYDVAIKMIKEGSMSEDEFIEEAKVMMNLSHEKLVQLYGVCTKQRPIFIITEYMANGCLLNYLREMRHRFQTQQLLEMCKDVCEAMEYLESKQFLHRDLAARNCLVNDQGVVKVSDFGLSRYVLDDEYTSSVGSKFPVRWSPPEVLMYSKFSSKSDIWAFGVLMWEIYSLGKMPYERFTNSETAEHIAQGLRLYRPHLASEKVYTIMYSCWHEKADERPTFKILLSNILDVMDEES
Sequence of EGFR (P00533 25-1210): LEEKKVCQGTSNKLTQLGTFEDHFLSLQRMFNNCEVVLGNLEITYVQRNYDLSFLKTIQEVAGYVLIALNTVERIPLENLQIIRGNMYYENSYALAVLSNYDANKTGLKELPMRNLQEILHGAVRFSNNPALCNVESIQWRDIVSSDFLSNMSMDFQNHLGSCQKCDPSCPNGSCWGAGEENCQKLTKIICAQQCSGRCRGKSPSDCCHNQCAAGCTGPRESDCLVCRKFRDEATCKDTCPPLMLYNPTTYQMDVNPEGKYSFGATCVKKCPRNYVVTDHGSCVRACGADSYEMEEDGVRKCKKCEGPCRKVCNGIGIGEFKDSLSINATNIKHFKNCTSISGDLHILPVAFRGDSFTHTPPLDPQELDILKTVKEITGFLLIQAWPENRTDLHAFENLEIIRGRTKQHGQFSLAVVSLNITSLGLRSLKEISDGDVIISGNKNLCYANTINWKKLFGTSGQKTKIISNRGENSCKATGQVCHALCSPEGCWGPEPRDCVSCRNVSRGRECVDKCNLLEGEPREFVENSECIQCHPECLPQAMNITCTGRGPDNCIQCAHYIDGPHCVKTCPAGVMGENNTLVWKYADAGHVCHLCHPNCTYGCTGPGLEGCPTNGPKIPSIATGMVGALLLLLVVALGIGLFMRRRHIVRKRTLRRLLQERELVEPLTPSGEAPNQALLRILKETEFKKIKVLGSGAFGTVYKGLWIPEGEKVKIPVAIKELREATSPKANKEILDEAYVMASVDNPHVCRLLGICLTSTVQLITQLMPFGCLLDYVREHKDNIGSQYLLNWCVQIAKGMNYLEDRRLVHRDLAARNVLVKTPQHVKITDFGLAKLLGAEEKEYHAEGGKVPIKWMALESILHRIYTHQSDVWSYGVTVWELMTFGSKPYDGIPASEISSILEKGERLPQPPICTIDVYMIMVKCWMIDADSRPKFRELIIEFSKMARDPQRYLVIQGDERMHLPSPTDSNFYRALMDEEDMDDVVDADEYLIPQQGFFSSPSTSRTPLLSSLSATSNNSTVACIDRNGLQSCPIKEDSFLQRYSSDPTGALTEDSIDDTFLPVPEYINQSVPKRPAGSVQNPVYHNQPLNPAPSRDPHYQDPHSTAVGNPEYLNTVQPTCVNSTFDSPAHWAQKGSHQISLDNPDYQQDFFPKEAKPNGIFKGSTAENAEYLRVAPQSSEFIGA
Sequence of Lck (P06239 whole entry, species assumed): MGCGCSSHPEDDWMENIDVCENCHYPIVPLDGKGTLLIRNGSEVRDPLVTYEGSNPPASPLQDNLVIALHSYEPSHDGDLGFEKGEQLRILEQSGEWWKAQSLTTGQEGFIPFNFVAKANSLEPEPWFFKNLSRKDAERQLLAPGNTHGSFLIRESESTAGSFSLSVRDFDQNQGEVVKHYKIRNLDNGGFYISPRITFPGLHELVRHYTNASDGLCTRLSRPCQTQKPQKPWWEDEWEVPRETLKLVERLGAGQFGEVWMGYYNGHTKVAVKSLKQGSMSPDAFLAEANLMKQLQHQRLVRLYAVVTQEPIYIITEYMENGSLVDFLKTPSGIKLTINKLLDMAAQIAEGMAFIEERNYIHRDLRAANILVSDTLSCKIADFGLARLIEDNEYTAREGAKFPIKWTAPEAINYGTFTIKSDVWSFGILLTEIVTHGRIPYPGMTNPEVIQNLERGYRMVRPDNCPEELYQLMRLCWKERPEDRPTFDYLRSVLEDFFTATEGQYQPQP

Row | SMILES | pIC50 (Btk) | pIC50 (Lck) | pIC50 (EGFR) | pIC50 (JAK3)
1 | C=CC(=O)N1CCC[C@@H](Nc2n[nH]c3nccc(Oc4ccc(-c5nc(C(F)(F)F)c[nH]5)cc4)c23)C1 [compound 154] | > 7.00 | < 5.00 | 5.00 to 6.00 | 5.00 to 6.00
2 | Cc1cc(Oc2ccnc3[nH]nc(N[C@@H]4CCCN(C(=O)/C=C/CN(C)C5CC5)C4)c23)ccc1Oc1ccccc1 [compound 156] | > 7.00 | 6.00 to 7.00 | 6.00 to 7.00 | < 5.00
3 | C=CC(=O)N1CCC[C@@H](Nc2n[nH]c3nccc(Oc4ccc(-c5ncc(C)s5)cc4)c23)C1 [compound 158] | > 7.00 | 5.00 to 6.00 | 6.00 to 7.00 | 5.00 to 6.00
4 | C=CC(=O)N1CCC[C@@H](Nc2n[nH]c3nccc(Oc4ccc(C(=O)Nc5cc(C)n(C)n5)cc4)c23)C1 [compound 159] | > 7.00 | < 5.00 | 5.00 to 6.00 | 6.00 to 7.00
5 | CN(C)CCCC(=O)N1CCC[C@@H](Nc2n[nH]c3nccc(Oc4ccc(C(=O)Nc5cc(C(F)(F)F)ccn5)cc4)c23)C1 [compound 161] | > 7.00 | > 7.00 | 6.00 to 7.00 | < 5.00
6 | C=CC(=O)N1CCC[C@@H](Nc2n[nH]c3nccc(Oc4ccc(C(=O)Nc5nc6ccccc6s5)cc4)c23)C1 [compound 162] | > 7.00 | 6.00 to 7.00 | > 7.00 | > 7.00
7 | Cc1nc(NC(=O)c2ccc(Oc3ccnc4[nH]nc(N[C@@H]5CCCN(C(=O)/C=C/CN(C)C6CC6)C5)c34)cc2)sc1C [compound 164] | > 7.00 | 5.00 to 6.00 | 5.00 to 6.00 | 5.00 to 6.00
8 | Cc1cc(NC(=O)c2ccc(Oc3ccnc4[nH]nc(N[C@@H]5CCCN(C(=O)/C=C/CN(C)C6CC6)C5)c34)cc2)nn1C [compound 165] | 6.00 to 7.00 | < 5.00 | < 5.00 | < 5.00
9 | CN(C/C=C/C(=O)N1CCC[C@@H](Nc2n[nH]c3nccc(Oc4ccc(C(=O)Nc5nc6ccccc6s5)cc4)c23)C1)C1CC1 [compound 167] | > 7.00 | 6.00 to 7.00 | 5.00 to 6.00 | 5.00 to 6.00
10 | Cc1cc(Oc2ccccc2)ccc1Oc1ccnc2[nH]nc(N[C@@H]3CCCN(C(=O)/C=C/CN(C)C4CC4)C3)c12 [compound 169] | > 7.00 | > 7.00 | 6.00 to 7.00 | 5.00 to 6.00
11 | CN(C)CCCC(=O)N1CCC[C@@H](Nc2n[nH]c3nccc(Oc4ccc(C(=O)Nc5nc6ccccc6s5)cc4)c23)C1 [compound 172] | > 7.00 | > 7.00 | 6.00 to 7.00 | > 7.00
12 | O=C(Nc1cc(C(F)(F)F)ccn1)c1ccc(Oc2ccnc3[nH]nc(N[C@@H]4CCCN(C(=O)C5CC5)C4)c23)cc1 [compound 173] | > 7.00 | 6.00 to 7.00 | 5.00 to 6.00 | < 5.00
13 | CC#CC(=O)N1CCC[C@@H](Nc2n[nH]c3nccc(Oc4ccc(C(=O)Nc5nc(C)c(C)s5)cc4)c23)C1 [compound 175] | > 7.00 | 6.00 to 7.00 | < 5.00 | < 5.00
14 | CCNC(=O)N1CCC[C@@H](Nc2n[nH]c3nccc(Oc4ccc(C(=O)Nc5nc6ccccc6s5)cc4)c23)C1 [compound 176] | > 7.00 | 6.00 to 7.00 | < 5.00 | 6.00 to 7.00
15 | CC#CC(=O)N1CCC[C@@H](Nc2n[nH]c3nccc(Oc4ccc(C(=O)Nc5ncc(CC)s5)cc4)c23)C1 [compound 177] | > 7.00 | 6.00 to 7.00 | 5.00 to 6.00 | 5.00 to 6.00
16 | C=CC(=O)N1CCC[C@@H](Nc2n[nH]c3nccc(Oc4ccc(C(=O)Nc5cc(C)on5)cc4)c23)C1 [compound 178] | > 7.00 | < 5.00 | 5.00 to 6.00 | 6.00 to 7.00
17 | C=CC(=O)N1CCC[C@@H](Nc2n[nH]c3nccc(Oc4ccc(C(=O)Nc5ncc(CC)s5)cc4)c23)C1 [compound 179] | > 7.00 | 6.00 to 7.00 | > 7.00 | > 7.00
18 | CC#CC(=O)N1CC[C@@H](Nc2n[nH]c3nccc(Oc4ccc(C(=O)Nc5ncc(C)s5)cc4)c23)C1 [compound 181] | > 7.00 | 5.00 to 6.00 | 5.00 to 6.00 | < 5.00
19 | CC#CC(=O)N1CCC[C@@H](Nc2n[nH]c3nccc(Oc4ccc(C(=O)Nc5nc6ccccc6s5)cc4)c23)C1 [compound 183] | > 7.00 | 6.00 to 7.00 | < 5.00 | 6.00 to 7.00
20 | CC#CC(=O)N1CCC[C@@H](Nc2n[nH]c3nccc(Oc4ccc(C(=O)Nc5cc(C)n(C)n5)cc4)c23)C1 [compound 185] | 6.00 to 7.00 | < 5.00 | < 5.00 | < 5.00
21 | C=CC(=O)N1CCC[C@@H](Nc2n[nH]c3nccc(Oc4ccc(C(=O)Nc5nnc(C)s5)cc4)c23)C1 [compound 187] | 6.00 to 7.00 | < 5.00 | 6.00 to 7.00 | > 7.00
22 | CCNC(=O)N1CC[C@@H](Nc2n[nH]c3nccc(Oc4ccc(C(=O)Nc5cc(C(F)(F)F)ccn5)cc4)c23)C1 [compound 188] | > 7.00 | 6.00 to 7.00 | 5.00 to 6.00 | < 5.00
23 | C=CC(=O)N1CCC[C@@H](Nc2n[nH]c3nccc(Oc4cccc(C(=O)Nc5cc(C(F)(F)F)ccn5)c4)c23)C1 [compound 191] | > 7.00 | 6.00 to 7.00 | > 7.00 | > 7.00
24 | C=CC(=O)N1CCC[C@@H](Nc2n[nH]c3nccc(Oc4ccc(-c5nc6ccccc6s5)cc4)c23)C1 [compound 192] | > 7.00 | 6.00 to 7.00 | 6.00 to 7.00 | 6.00 to 7.00
25 | C=CC(=O)N1CCC[C@@H](Nc2n[nH]c3nccc(Oc4ccc(-c5nc6ccccc6o5)cc4)c23)C1 [compound 194, 1-[(3R)-3-({4-[4-(1,3-benzoxazol-2-yl)phenoxy]-1H-pyrazolo[3,4-b]pyridin-3-yl}amino)piperidin-1-yl]prop-2-en-1-one] | > 7.00 | 5.00 to 6.00 | 5.00 to 6.00 | 6.00 to 7.00
26 | Cc1cnc(NC(=O)c2ccc(Oc3ccnc4[nH]nc(N[C@@H]5CCCN(C(=O)/C=C/CN(C)C)C5)c34)cc2)s1 [compound 198, 4-[(3-{[(3R)-1-[(2E)-4-(dimethylamino)but-2-enoyl]piperidin-3-yl]amino}-1H-pyrazolo[3,4-b]pyridin-4-yl)oxy]-N-(5-methyl-1,3-thiazol-2-yl)benzamide] | > 7.00 | 6.00 to 7.00 | 5.00 to 6.00 | < 5.00
27 | CN1CCC(C(=O)N2CC[C@@H](Nc3n[nH]c4nccc(Oc5ccc(C(=O)Nc6cc(C(F)(F)F)ccn6)cc5)c34)C2)CC1 [compound 199, 4-[(3-{[1-(1-methylpiperidin-4-carbonyl)pyrrolidin-3-yl]amino}-1H-pyrazolo[3,4-b]pyridin-4-yl)oxy]-N-[4-(trifluoromethyl)pyridin-2-yl]benzamide] | > 7.00 | 6.00 to 7.00 | 6.00 to 7.00 | < 5.00
28 | Cc1cnc(NC(=O)c2ccc(Oc3ccnc4[nH]nc(N[C@@H]5CCN(C(=O)C6CC6)C5)c34)cc2)s1 [compound 200, 4-[(3-{[(3R)-1-cyclopropanecarbonylpyrrolidin-3-yl]amino}-1H-pyrazolo[3,4-b]pyridin-4-yl)oxy]-N-(5-methyl-1,3-thiazol-2-yl)benzamide] | > 7.00 | 5.00 to 6.00 | 5.00 to 6.00 | < 5.00
29 | C=CC(=O)N1CCC[C@@H](Nc2n[nH]c3nccc(Oc4ccc(NC(=O)Nc5cc(C(F)(F)F)ccn5)cc4)c23)C1 [compound 201, 1-{4-[(3-{[(3R)-1-(prop-2-enoyl)piperidin-3-yl]amino}-1H-pyrazolo[3,4-b]pyridin-4-yl)oxy]phenyl}-3-[4-(trifluoromethyl)pyridin-2-yl]urea] | > 7.00 | > 7.00 | > 7.00 | > 7.00
